Target: T1, IDUA (Homo sapiens, UniProt P35475)
T1 sequence (P35475 28-653): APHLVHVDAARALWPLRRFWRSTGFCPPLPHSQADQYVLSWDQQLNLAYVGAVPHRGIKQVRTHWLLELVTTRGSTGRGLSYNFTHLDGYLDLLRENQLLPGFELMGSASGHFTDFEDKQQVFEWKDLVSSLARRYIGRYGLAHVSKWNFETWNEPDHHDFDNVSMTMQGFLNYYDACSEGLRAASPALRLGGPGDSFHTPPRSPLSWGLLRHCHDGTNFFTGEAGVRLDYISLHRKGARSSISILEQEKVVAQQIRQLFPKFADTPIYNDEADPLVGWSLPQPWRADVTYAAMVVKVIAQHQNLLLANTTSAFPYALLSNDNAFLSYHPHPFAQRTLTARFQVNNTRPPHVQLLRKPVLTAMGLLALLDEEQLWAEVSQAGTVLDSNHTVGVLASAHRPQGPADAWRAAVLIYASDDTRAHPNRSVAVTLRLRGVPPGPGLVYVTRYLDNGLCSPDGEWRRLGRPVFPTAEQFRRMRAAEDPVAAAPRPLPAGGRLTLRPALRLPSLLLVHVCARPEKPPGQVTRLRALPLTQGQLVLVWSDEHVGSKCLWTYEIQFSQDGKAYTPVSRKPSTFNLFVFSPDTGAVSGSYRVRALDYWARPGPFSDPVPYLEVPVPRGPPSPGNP
Experiment: IDUA enzymatic activity in patient-derived fibroblasts after rhIDUA with or without compound (4-MUI substrate)
Assay type: cell-based
Set-up: Institute of Biotechnology and Biomedicine, Autonomous University of Barcelona (UAB), Bellaterra, Spain
Experimental: Fibroblasts derived from Hurler (GM00798) and Hurler/Scheie patients (GM02845, GM00512, GM01898, GM00963) were purchased from Coriell (Camden, NJ). Fibroblasts were cultured in Dulbecco’s modified Eagle’s medium (DMEM, Gibco) supplemented with 10% inactivated fetal bovine serum (FBS, Gibco) and 1% penicillin-streptomycin (Thermo Fisher Scientific, Waltham, MA, USA) (growth medium) at 37 °C under 5% CO2. The effect of the protein and/or compound in enhancing IDUA enzymatic activity was evaluated as follows: The specified patient-derived fibroblasts were seeded at 4x10^4 cells per well in 12-well cell culture plates in growth medium. Subsequently, cells were incubated with indicated dose of rhIDUA (obtained from the Institute of Biotechnology and Biomedicine in the UAB, Bellaterra, Spain) in the absence or presence of the compound #18 (GT-01803) for the specified incubation times at 50 μM. After incubation, cells were washed with PBS and detached using Trypsin-EDTA solution (Sigma Aldrich, St. Louis, MO, USA) to prepare cell pellets. The pellets were stored at -80 °C until activity assays were performed. IDUA activity in cell lysates was measured using 4-methylumbelliferyl IDUA substrate (4-MUI, Glycosynth Ltd., #44076, Warrington, UK). Briefly, lysates were resuspended in 120 μL of 0.9% NaCl containing 0.01% Triton X-100 lysis buffer to promote membrane disruption. Next, the cell suspension was sonicated and centrifuged to pellet insoluble materials. Then, 25 μL of lysates were mixed with 25 μL of 200 μM 4-MUI substrate solution in 0.4 M sodium formate, pH 3.5, 0.2% Triton X-100 buffer and incubated for 60 mins at 37 °C. The reaction was stopped by adding 200 μL of 0.5 M Glycine/0.3 M NaOH buffer, pH 10. The liberated 4-methylumbelliferone (4-MU) was measured on a Glomax® Discover microplate reader with excitation at 340 nm and emission at 460 nm. Protein quantification was determined using Pierce BCA Protein Assay Kit (Thermo Fisher Scientific, Waltham, MA, USA). Measurements were interpolated in a 4-MU standard curve and normalised by protein quantity.
For Fig 6A, rhIDUA concentrations of 0.187, 0.375 and 1.25 nM were tested in GM02845 fibroblasts over a 96-hour period, both in the presence and absence of the compound #18 (GT-01803) at 50 μM. In Fig 6B, 1.25 nM of rhIDUA was evaluated in GM02845, GM00798, GM00512, and GM00963 fibroblasts for 96h, with and without the compound #18 (GT-01803) at 50 μM. In Fig 6C, a concentration of 1.25 nM of the protein was applied to fibroblasts for 4, 8, 24 and 96h, with and without the compound #18 (GT-01803) at 50 μM.

[1] = rhIDUA 1.25 nM + GT-01803 50 μM, GM02845 fibroblasts (Fig 6C)

## CCN(CC(=O)Nc1c(Cl)cccc1Cl)Cc1nc2ccsc2c(=O)[nH]1 [GT-01803]
co-administration of rhIDUA (0.187, 0.375, 1.25 nM) with 50 μM GT-01803, GM02845, 96 h, p ≤ 0.0001
  IDUA cell activity compared with rhIDUA alone: marked dose-dependent increase
[1]
  mean IDUA cell activity at 96h: 104.3 nmol/h/mg
  mean difference in IDUA cell activity at 96h, rhIDUA + compound vs rhIDUA alone: 28.65 ± 3.106 nmol/h/mg

Reference: article PMC11104609, “Discovery of allosteric regulators with clinical potential to stabilize alpha-L-iduronidase in mucopolysaccharidosis type I” (PLOS ONE, 2024)
